We go through four molecules from ChEMBL document CHEMBL5046285, “Probing Fluorinated Motifs onto Dual AChE-MAO B Inhibitors: Rational Design, Synthesis, Biological Evaluation, and Early-ADME Studies” (J Med Chem, 2022).

Values after ≈ are worked out from the molar mass of the structure shown. Active and inactive are the calls of the source. The calls are words filed in the database; no cut-off is given here.

The target of data set [1] is T1, Amine oxidase [flavin-containing] B (Homo sapiens, UniProt P27338).
T1 sequence (P27338 whole entry): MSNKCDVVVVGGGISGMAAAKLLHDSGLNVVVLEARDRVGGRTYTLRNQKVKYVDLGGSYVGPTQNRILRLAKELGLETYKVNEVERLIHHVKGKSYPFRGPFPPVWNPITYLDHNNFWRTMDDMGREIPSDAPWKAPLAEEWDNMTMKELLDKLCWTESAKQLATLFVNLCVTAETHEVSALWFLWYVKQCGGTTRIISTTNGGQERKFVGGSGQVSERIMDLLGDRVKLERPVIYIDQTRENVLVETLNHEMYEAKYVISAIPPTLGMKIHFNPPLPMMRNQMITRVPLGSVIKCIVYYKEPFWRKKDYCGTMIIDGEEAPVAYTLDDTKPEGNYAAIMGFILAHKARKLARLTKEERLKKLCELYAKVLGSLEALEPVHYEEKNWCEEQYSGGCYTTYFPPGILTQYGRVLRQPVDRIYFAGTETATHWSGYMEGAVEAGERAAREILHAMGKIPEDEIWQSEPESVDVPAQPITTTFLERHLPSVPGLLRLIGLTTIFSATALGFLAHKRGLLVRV
As to the kind of experiment: Reversible inhibition of human recombinant MAO-B expressed in supersomes using kynuramine as substrate at 10 nM co-incubated with enzyme and measured over 6 hrs by spectrophotometric method. The following applies: 0.01 µM.

A short description of data set [2]: Kinetic aqueous solubility of the compound in PBS incubated for 2 hrs under mild shaking at pH 7.4 by UV- vis spectrophotometric analysis. The following applies: read-out: Kinetic_solubility. It is filed as physicochemical.
A short description of data set [3]: 1-Octanol/PBS buffer distribution coefficient, log D of the compound at 1 uM measured after 24 hrs at pH 7.4 by shake flask based HPLC-ES-MS/MS analysis. It is filed as physicochemical.
Data set [4] can be described thus: Chromatographic hydrophobicity index of the compound in ammonium acetate buffer at pH 7.4 by RP-HPLC analysis. It is filed as physicochemical.
Data set [5] can be described thus: Effective permeability of the compound in PBS buffer at pH 7.4 by PAMPA-BBB assay. The following applies: read-out: Peff. Format: ADME. On the technique in general: PAMPA measures passive passage across an artificial lipid membrane.
Data set [6] in a line: Apparent permeability across basolateral to apical side in human Caco-2 cells at 10 uM incubated for 60 mins by HPLC-MS/MS method. Format: ADME, cell-based. (Passage across Caco-2 layers is used to estimate intestinal permeability.)
The nature of data set [7]: Apparent permeability across apical to basolateral side in human Caco-2 cells at 10 uM incubated for 60 mins by HPLC-MS/MS method. Format: ADME, cell-based.
The nature of data set [8]: Efflux ratio of apparent permeability across basolateral to apical side over apical to basolateral side in human Caco-2 cells. Format: ADME, cell-based.
Data set [9] has as its system HepG2. As to the kind of experiment: Cytotoxicity against human HepG2 cells assessed as reduction in cell viability at 100 uM incubated for 4 hrs by CellTiter-Glo luminescence assay. Format: toxicity, cell-based. The following applies: hepg2, 4 h.
Data set [10] is described as follows: Microsomal stability in human liver microsomes assessed as half life at 0.5 uM incubated upto 60 mins in presence of NADPH by LC/MS/MS analysis. Format: ADME, Microsome. (In general: Liver microsomes are vesicles of endoplasmic reticulum, rich in cytochrome P450 enzymes.)
The nature of data set [11]: Microsomal stability in mouse liver microsomes assessed as half life at 0.5 uM incubated upto 30 mins in presence of NADPH by LC/MS/MS analysis. Format: ADME, Microsome.
A short description of data set [12]: Intrinsic clearance in human liver microsomes at 0.5 uM incubated upto 60 mins in presence of NADPH measured per mg protein by LC/MS/MS analysis. As to conditions: read-out: CLH. Format: ADME, Microsome.
Data set [13] in a line: Intrinsic clearance in mouse liver microsomes at 0.5 uM incubated upto 30 mins in presence of NADPH measured per mg protein by LC/MS/MS analysis. Format: ADME, Microsome. The following applies: read-out: CLH.
The target in data set [14] is Cytochrome P450 3A4 (Homo sapiens, UniProt P08684). The data set can be described thus: Inhibition of human recombinant CYP3A4 expressed in baculosomes by fluorescent homogenous assay. Format: ADME.
Data set [15] addresses T2, Acetylcholinesterase (Homo sapiens, UniProt P22303). The data set can be described thus: Mixed type inhibition of human AChE by Lineweaver-Burk plot analysis.
Data set [16] concerns the target T1, Amine oxidase [flavin-containing] B. The data set can be described thus: Competitive inhibition of human recombinant MAO-B expressed in supersomes using kynuramine as substrate by Lineweaver-Burk plot analysis.
The subject of data set [17] is SH-SY5Y. As to the kind of experiment: Cytotoxicity against human SH-SY5Y cells assessed as reduction in cell viability at 100 uM incubated for 4 hrs by CellTiter-Glo luminescence assay. It is filed as toxicity, cell-based.
For data set [18], the system named is SH-SY5Y. As to the kind of experiment: Neuroprotective activity against H2O2-induced neurotoxicity in human SH-SY5Y cells assessed as increase in cell viability at 1 to 5 uM co-incubated with H2O2 for 24 hrs by MTT assay. It is filed as functional, cell-based. The following applies: dose 1-5 µM.
For data set [19], the system named is SH-SY5Y. As to the kind of experiment: Neuroprotection against Amyloid beta-induced cytotoxicity in human SH-SY5Y cells assessed as increase in cell viability at 0.1 to 1 uM co-incubated with Amyloid beta for 24 hrs by MTT assay. As to conditions: dose 0.1-1 µM. Format: functional, cell-based.
Data set [20] deals with SH-SY5Y. The data set can be described thus: Neuroprotective activity against NMDA -induced cytotoxicity in human SH-SY5Y cells assessed as increase in cell viability at 0.1 to 5 uM co-incubated with NMDA for 24 hrs by MTT assay. It is filed as functional, cell-based. The following applies: dose 0.1-5 µM.
For data set [21], the target named is Albumin (Homo sapiens, UniProt P02768). The data set can be described thus: Binding affinity to human serum albumin assessed as dissociation […] constant by surface plasmon resonance assay. It is filed as ADME, cell-free.
Data set [22] has as its target Cholinesterase (Equus caballus) (UniProt P81908). The data set can be described thus: Inhibition of horse serum BChE at 10 uM by Ellman's spectrophotometric assay. It is filed as cell-free.
For data set [23], the species on record is Homo sapiens. As to the kind of experiment: Selectivity for human recombinant MAO-B expressed in supersomes over human recombinant MAO-A expressed in supersomes.
For data set [24], the target named is T1, Amine oxidase [flavin-containing] B. The data set can be described thus: Inhibition of human recombinant MAO-B expressed in supersomes assessed as inhibition of 4-hydroxyquinoline formation using kynuramine as substrate by spectrophotometric method.
The target is the same in data set [25].
Description: Inhibition of human recombinant MAO-B expressed in supersomes assessed as inhibition of 4-hydroxyquinoline formation using kynuramine as substrate by spectrofluorimetric analysis
Data set [26] concerns the target T2, Acetylcholinesterase.
Description: Inhibition of human recombinant AChE by Ellman's spectrophotometric assay
In data set [27] the target is T3, MAO-A (Homo sapiens, UniProt P21397).
T3 sequence (P21397 whole entry): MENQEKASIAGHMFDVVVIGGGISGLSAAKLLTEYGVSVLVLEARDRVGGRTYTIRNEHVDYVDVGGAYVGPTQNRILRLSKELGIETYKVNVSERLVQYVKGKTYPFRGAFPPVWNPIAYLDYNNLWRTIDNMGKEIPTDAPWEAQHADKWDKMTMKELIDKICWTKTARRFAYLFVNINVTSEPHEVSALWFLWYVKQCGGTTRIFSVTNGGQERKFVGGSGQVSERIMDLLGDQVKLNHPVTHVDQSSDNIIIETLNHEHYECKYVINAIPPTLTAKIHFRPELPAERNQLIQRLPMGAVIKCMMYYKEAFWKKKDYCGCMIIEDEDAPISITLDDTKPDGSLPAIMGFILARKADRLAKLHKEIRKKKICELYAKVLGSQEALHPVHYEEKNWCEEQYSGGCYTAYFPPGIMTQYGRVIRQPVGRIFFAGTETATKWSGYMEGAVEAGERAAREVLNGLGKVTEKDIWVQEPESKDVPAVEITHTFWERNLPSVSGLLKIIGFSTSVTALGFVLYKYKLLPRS
As to the kind of experiment: in vitro. As to conditions: recombinant MAO-A expressed in supersomes, probe kynuramine.

The test system of data set [28] is SH-SY5Y. The data set can be described thus: Cytotoxicity against human SH-SY5Y cells assessed as reduction in cell viability at 1 to 100 uM incubated for 4 hrs by CellTiter-Glo luminescence assay. It is filed as toxicity, cell-based. As to conditions: dose 1-100 µM.
Data set [29] concerns HepG2. As to the kind of experiment: Cytotoxicity against human HepG2 cells assessed as reduction in cell viability at 1 to 100 uM incubated for 4 hrs by CellTiter-Glo luminescence assay. The following applies: hepg2, 4 h, dose 1-100 µM. It is filed as toxicity, cell-based.
The nature of data set [30]: Cytotoxicity against human SH-SY5Y cells assessed as reduction in cell viability incubated for 4 hrs by CellTiter-Glo luminescence assay. It is filed as toxicity, cell-based.
Data set [31] in a line: Cytotoxicity against human HepG2 cells assessed as reduction in cell viability incubated for 4 hrs by CellTiter-Glo luminescence assay. Format: toxicity, cell-based.
The target in data set [32] is Cholinesterase (Equus caballus, UniProt P81908).
Cholinesterase, sequence (P81908 whole entry): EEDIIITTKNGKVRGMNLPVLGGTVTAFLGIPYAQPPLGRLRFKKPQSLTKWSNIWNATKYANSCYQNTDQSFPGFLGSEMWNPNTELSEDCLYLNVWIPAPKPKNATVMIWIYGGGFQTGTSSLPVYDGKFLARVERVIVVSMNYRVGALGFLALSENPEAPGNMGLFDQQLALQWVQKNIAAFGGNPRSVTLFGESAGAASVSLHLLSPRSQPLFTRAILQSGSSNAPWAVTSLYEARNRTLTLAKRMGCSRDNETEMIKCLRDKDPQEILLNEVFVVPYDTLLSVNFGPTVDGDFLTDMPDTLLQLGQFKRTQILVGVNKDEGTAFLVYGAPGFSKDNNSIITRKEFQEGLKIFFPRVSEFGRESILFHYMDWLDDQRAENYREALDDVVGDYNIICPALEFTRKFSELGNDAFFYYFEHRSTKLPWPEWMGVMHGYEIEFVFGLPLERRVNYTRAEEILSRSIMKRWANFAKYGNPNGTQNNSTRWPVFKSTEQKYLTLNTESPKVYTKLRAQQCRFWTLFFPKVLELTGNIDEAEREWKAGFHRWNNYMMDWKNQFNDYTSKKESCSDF
Description: Inhibition of horse serum BChE by Ellman's spectrophotometric assay

Cytochrome P450 3A4, sequence (P08684 whole entry): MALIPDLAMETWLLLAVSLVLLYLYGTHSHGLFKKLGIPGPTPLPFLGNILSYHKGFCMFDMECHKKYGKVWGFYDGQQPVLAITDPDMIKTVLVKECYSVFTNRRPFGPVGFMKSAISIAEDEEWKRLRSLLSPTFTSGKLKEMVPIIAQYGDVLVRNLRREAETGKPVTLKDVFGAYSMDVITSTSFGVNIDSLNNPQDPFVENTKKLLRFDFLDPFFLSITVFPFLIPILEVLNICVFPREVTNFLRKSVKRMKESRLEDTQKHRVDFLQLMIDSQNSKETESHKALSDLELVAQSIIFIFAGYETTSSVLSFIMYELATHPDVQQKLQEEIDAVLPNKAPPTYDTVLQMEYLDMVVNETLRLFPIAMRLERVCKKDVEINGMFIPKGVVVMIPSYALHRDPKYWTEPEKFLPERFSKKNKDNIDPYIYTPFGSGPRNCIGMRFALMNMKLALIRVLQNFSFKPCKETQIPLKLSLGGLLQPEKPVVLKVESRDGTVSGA
T2 sequence (P22303 whole entry): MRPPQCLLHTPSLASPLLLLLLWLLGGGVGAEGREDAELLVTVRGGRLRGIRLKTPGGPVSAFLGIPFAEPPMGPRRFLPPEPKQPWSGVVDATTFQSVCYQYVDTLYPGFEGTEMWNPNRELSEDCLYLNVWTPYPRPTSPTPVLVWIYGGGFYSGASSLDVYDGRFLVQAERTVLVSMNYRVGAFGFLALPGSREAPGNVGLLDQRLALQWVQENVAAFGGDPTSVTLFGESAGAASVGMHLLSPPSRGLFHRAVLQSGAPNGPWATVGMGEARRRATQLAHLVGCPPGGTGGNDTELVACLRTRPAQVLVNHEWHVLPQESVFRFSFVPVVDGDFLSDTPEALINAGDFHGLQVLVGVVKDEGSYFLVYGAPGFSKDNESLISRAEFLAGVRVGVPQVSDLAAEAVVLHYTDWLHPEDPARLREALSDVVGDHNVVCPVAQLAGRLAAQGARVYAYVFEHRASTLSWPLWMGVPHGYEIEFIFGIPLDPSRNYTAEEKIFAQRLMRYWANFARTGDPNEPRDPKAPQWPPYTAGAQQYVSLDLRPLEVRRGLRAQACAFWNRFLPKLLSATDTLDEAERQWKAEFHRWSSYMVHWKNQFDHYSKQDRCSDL
Albumin, sequence (P02768 whole entry): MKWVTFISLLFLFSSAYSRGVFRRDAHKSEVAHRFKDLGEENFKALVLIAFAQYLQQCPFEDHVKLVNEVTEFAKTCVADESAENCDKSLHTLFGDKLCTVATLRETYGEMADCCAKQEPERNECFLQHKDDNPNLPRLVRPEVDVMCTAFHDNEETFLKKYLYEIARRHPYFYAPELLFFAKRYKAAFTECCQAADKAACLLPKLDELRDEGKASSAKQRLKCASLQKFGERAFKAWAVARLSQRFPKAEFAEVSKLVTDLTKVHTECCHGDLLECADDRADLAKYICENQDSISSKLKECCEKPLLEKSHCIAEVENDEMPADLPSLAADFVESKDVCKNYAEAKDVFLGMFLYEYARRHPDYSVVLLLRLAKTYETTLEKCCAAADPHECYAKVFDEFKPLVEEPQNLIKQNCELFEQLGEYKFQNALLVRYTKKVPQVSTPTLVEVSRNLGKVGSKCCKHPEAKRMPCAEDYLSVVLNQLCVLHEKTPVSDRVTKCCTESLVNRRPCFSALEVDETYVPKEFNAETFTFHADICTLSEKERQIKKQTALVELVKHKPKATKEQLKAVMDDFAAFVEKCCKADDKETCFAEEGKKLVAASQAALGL
Cholinesterase (Equus caballus), sequence (P81908 whole entry): as the sequence (P81908 whole entry) above

For `C[C@H](NCc1ccc(OCc2cccc(F)c2)cc1)C(N)=O` [SAFINAMIDE], the “inhibition (INH)” value in data set [1] is listed as “Active”.

The logD is the decadic logarithm of the distribution of all forms, ionised or not, between an organic phase and buffer at a given pH. Lower therefore signals lower lipophilicity. For orientation: Papp B→A means the apparent permeability from the basolateral to the apical side of a cell layer. Usually Papp A→B stands for the apparent permeability from the apical to the basolateral side of a cell layer. As a reminder, the efflux ratio is the permeability from basolateral to apical divided by that in the opposite direction, in the common usage. By half-life is commonly meant the time in which the quantity being followed falls by half. As usually defined, the IC50 is the concentration at which inhibition is half-maximal. The term Ki denotes a measure of affinity in units of concentration, obtained from inhibition or displacement. For orientation: Kd means the concentration at which binding is half-saturated. One may read the inhibition as the relative decrease from the control value, in per cent. Regarding `CN(CCCC(F)F)Cc1ccc(COc2ccc3c(CO)cc(=O)oc3c2)cc1`, the solubility kinetic at 2 h in data set [2] was 201 µM (≈ 83.9 µg/mL). The molecule further had a logD at 24 h, 1 µM in data set [3] of 2.48. The same molecule returned a CHI in data set [4] of 76.4. The Papp in data set [5] is over 14 ×10⁻⁶ cm/s. Also, the basolateral-to-apical permeability (Papp B→A) at 1 h, 10 µM in data set [6] turned out to be 16 ×10⁻⁶ cm/s. Moreover, the Papp A→B at 1 h, 10 µM in data set [7] stood at 25 ×10⁻⁶ cm/s. Moreover, the efflux ratio in [8] turned out to be 0.6. Further, the Activity result in data set [9] and in [17] was “Non-Toxic” each time. The half-life at 0.5 µM in data set [10] was 34.9 min; in data set [11], 25 min. The microsomal CLint at 0.5 µM in data set [12] came out at 39.8 µL/min/mg; in data set [13], 55.6 µL/min/mg. The values for the IC50 in [14], in [25] and in [26] were 10000 nM, 8.2 nM and 550 nM, respectively. Moreover, the values for the Ki in data set [15] and in data set [16] were 2000 nM and 13 nM, respectively. Further, the outcome in data set [18], in data set [19] and in data set [20] was Active. The Kd in data set [21] is 11300 nM. For the same molecule, the inhibition in data set [22] came to 34%. Also, the Selectivity Index in [23] was over 1250. For the same molecule, the “inhibition (INH)” value in [24] and in data set [1] was “Active” each time. Also, the inhibition at 10 µM in data set [27] was 34%.

Consider `Cc1c(C)c2ccc(OCC3CCN(CCCO)CC3)cc2oc1=O`, for which, in data set [2], the solubility kinetic at 2 h is over 500 µM. The same molecule showed a logD at 24 h, 1 µM in data set [3] of 0.86. In addition, in data set [4], the CHI stood at 47.3. For the same molecule, the Papp in data set [5] amounted to 6 ×10⁻⁶ cm/s. In addition, the Papp B→A at 1 h, 10 µM in data set [6] came to 22 ×10⁻⁶ cm/s. Moreover, the Papp A→B at 1 h, 10 µM in [7] was 19 ×10⁻⁶ cm/s. Moreover, in [8], the efflux ratio came to 1.2. Also, the half-life at 0.5 µM was over 120 min in data set [10] and 47.2 min in [11]. For the same molecule, the microsomal CLint at 0.5 µM was under 11.5 µL/min/mg in [12] and 29.5 µL/min/mg in data set [13]. Further, in data set [14], the 50% inhibitory concentration (IC50) is over 10000 nM. Besides, the dissociation constant Kd in data set [21] amounted to 31700 nM. Also, the Activity result in data set [28] and in [29] was “Non-Toxic” throughout. In data set [27], the inhibition at 10 µM came to 50%.

As for `CN(Cc1ccc(COc2ccc3c(CO)cc(=O)oc3c2)cc1)Cc1cccc(F)c1`, the solubility kinetic at 2 h in data set [2] is 2.4 µM (≈ 1.04 µg/mL). Further, the logD at 24 h, 1 µM in data set [3] amounted to 4.29. The molecule further displayed a CHI in [4] of over 100. In addition, the half-life at 0.5 µM in [11] stood at 36.9 min. Moreover, the microsomal CLint at 0.5 µM in data set [13] amounted to 37.7 µL/min/mg. The IC50 in [14] is 3500 nM; in data set [25], 10 nM; in data set [26], 330 nM; in [32], 1100 nM. For the same molecule, in data set [23], the Selectivity Index was over 1000. Further, in [24], the “inhibition (INH)” value is “Active”. Moreover, the IC50 at 4 h in data set [30] and in [31] was 40000 nM in each case. Moreover, the inhibition at 10 µM in data set [27] was found to be 47%.
